Experimental data reported in article PMC4764975, “Probing the enzyme kinetics, allosteric modulation and activation of α1- and α2-subunit-containing AMP-activated protein kinase (AMPK) heterotrimeric complexes by pharmacological and physiological activators” (Biochemical Journal, 2016).
Entries after “also recorded” stand apart in the source; their conditions may differ. Where two headings read alike, the source gives them in different places.

Experiments:
AMPK α2β1γ1 = target: T1, AMPK α2β1γ1 (Homo sapiens, UniProt P54619+P54646+Q9Y478); test: Protection of pAMPK α-pThr172/174 from PP2Aα (slot-blot ELISA); format: biochemical
T1 construct: Recombinant full-length AMPK heterotrimeric complexes α1β1γ1, α1β2γ1, α1β2γ3, α2β1γ1, α2β2γ1 and α2β2γ3 were cloned; 6X-His (N); made in house; host or cells: E. coli BL21-CodonPlus (DE3)-RIPL
Procedure: (§1) Test compound was previously diluted in half-log increments, starting at 40 μM in 100% DMSO, diluted 10-fold in assay buffer and dispensed into a microtitre plate. After 15 min at room temperature, phosphatase was added to the mixture and the reaction was allowed to proceed for 60 min at room temperature. Reactions were quenched by the addition of okadaic acid, and transferred to PVDF membrane using the slot-blot apparatus and subjected to immunoblotting. Phosphatase sensitivity was similarly assessed by subjecting pAMPK to a phosphatase (PP2Aα) treatment using various concentrations and incubation times. The concentration of phosphatase was expressed as nmol of PP2Aα per minute per nmol of pAMPK in the reaction.
(§2) The membrane was blocked with Western Blot Blocking Buffer Reagent (Li-Cor) for 3–4 h at room temperature. […] Following the wash step, goat anti-rabbit 800CW (Rockland) at 1:10000 dilution was used as a secondary antibody. Blots were visualized using the Li-Cor Odyssey infrared imaging system and signal quantification was performed using the Odyssey software.
(§3) Data are mean (n=2), and curves were generated using best-fit values.

AMPK α1β1γ1 [1] = target: T2, AMPK α1β1γ1 (Homo sapiens, UniProt P54619+Q13131+Q9Y478); test: as above; format: biochemical
T2 construct: Recombinant full-length AMPK heterotrimeric complexes α1β1γ1, α1β2γ1, α1β2γ3, α2β1γ1, α2β2γ1 and α2β2γ3 were cloned; 6X-His (N); made in house; host or cells: E. coli BL21-CodonPlus (DE3)-RIPL
Procedure: as §1, §2, §3

AMPK α2β2γ3 [2] = target: T3, AMPK α2β2γ3 (Homo sapiens, UniProt O43741+P54646+Q9UGI9); test: as above; format: biochemical
T3 construct: Recombinant full-length AMPK heterotrimeric complexes α1β1γ1, α1β2γ1, α1β2γ3, α2β1γ1, α2β2γ1 and α2β2γ3 were cloned; 6X-His (N); made in house; host or cells: E. coli BL21-CodonPlus (DE3)-RIPL
Procedure: as §1, §2, §3

AMPK α1β2γ1 [3] = target: T4, AMPK α1β2γ1 (Homo sapiens, UniProt O43741+P54619+Q13131); test: as above; format: biochemical
T4 construct: Recombinant full-length AMPK heterotrimeric complexes α1β1γ1, α1β2γ1, α1β2γ3, α2β1γ1, α2β2γ1 and α2β2γ3 were cloned; 6X-His (N); made in house; host or cells: E. coli BL21-CodonPlus (DE3)-RIPL
Procedure: as §1, §2, §3

AMPK α2β2γ1 [4] = target: T5, AMPK α2β2γ1 (Homo sapiens, UniProt O43741+P54619+P54646); test: as above; format: biochemical
T5 construct: Recombinant full-length AMPK heterotrimeric complexes α1β1γ1, α1β2γ1, α1β2γ3, α2β1γ1, α2β2γ1 and α2β2γ3 were cloned; 6X-His (N); made in house; host or cells: E. coli BL21-CodonPlus (DE3)-RIPL
Procedure: as §1, §2, §3

AMPK α1β2γ3 [5] = target: T6, AMPK α1β2γ3 (Homo sapiens, UniProt O43741+Q13131+Q9UGI9); test: as above; format: biochemical
T6 construct: Recombinant full-length AMPK heterotrimeric complexes α1β1γ1, α1β2γ1, α1β2γ3, α2β1γ1, α2β2γ1 and α2β2γ3 were cloned; 6X-His (N); made in house; host or cells: E. coli BL21-CodonPlus (DE3)-RIPL
Procedure: as §1, §2, §3

BAP-tagged AMPK α2β2γ1 = target: T7, BAP-tagged AMPK α2β2γ1 (Homo sapiens, UniProt O43741+P54619+P54646); test: SPR direct binding (Biacore)
T7 construct: Recombinant full-length AMPK heterotrimeric complexes α1β1γ1, α1β2γ1, α1β2γ3, α2β1γ1, α2β2γ1 and α2β2γ3 were cloned into a tricistronic vector system; 6X-His (N); made in house; host or cells: E. coli BL21-CodonPlus (DE3)-RIPL, co-expressed with BirA
Procedure: (§4) SPR experiments were performed on a Biacore™ 3000 instrument (GE Healthcare). BAP-tagged AMPK isoform (α1β1γ1, α1β2γ1, α2β2γ1, α2β2γ3) was captured on to a streptavidin sensor chip to levels ranging from 4000 to 6000 RU. […] Binding responses were processed using Scrubber 2 (BioLogic Software Pty Ltd) to zero, x-align, double reference and corrected for excluded volume effect of DMSO in the data. […] The compound was injected at a flow rate of 50 μl/min with total contact time of 120 s and dissociation time of 600 s. Rate parameters (kon, koff) and corresponding dissociation constant(KD=koff/kon) were determined by globally fitting all of the experimental data to a simple 1:1 interaction model using Biaeval software (GE Healthcare). To determine nt binding, 10 concentrations with 2-fold dilutions were tested in duplicate. The highest concentration tested was 2 mM. The compound was injected at a flow rate of 50 μl/min with total contact time of 120 s and dissociation time of 300 s. Equilibrium dissociation constant (KD) was determined using a steady-state affinity algorithm available within Scrubber.
(§5) We then compared the binding of nts (AMP, ADP and ATP) to α1β1γ1, α1β2γ1, α2β2γ1 and α2β2γ3 isoforms in the presence and absence of Mg^2+ and Stau, using SPR technique. […]

BAP-tagged AMPK α1β1γ1 [6] = target: T8, BAP-tagged AMPK α1β1γ1 (Homo sapiens, UniProt P54619+Q13131+Q9Y478); test: SPR direct binding (Biacore)
T8 construct: Recombinant full-length AMPK heterotrimeric complexes α1β1γ1, α1β2γ1, α1β2γ3, α2β1γ1, α2β2γ1 and α2β2γ3 were cloned; 6X-His (N); AviTag (BAP); made in house; host or cells: E. coli (co-expressed with BirA)
Procedure: as §4, §5

AMPK α1β1γ1 [7] = target: T2, AMPK α1β1γ1; test: TR-FRET allosteric activation assay; format: biochemical; settings: 50 nM Cy5-SAMS, ATP at Km
From the text: (§6) After excitation at 320 nm, the energy from the Europium donor is transferred to the Cy5 acceptor which in turn generates light at 665 nm. The intensity of the signal is proportional to the level of AMPK-mediated Cy5 substrate phosphorylation. […] Non-specific emission obtained from samples containing all the reagents except enzyme was used to normalize the values.
(§7) The basal kinase activity of the pAMPK isoforms in the absence of activator was normalized to zero (baseline) and the changes in the enzyme activity in the presence of activator at different concentrations was compared with the basal activity.

AMPK α2β2γ3 [8] = target: T3, AMPK α2β2γ3; test: TR-FRET allosteric activation assay; format: biochemical; settings: 50 nM Cy5-SAMS, ATP at Km
From the text: as §6, §7

AMPK α1β2γ1 [9] = target: T4, AMPK α1β2γ1; test: TR-FRET allosteric activation assay; format: biochemical; settings: 50 nM Cy5-SAMS, ATP at Km
From the text: as §6, §7

AMPK α2β2γ1 [10] = target: T5, AMPK α2β2γ1; test: TR-FRET allosteric activation assay; format: biochemical; settings: 50 nM Cy5-SAMS, ATP at Km
From the text: as §6, §7

AMPK α1β2γ3 [11] = target: T6, AMPK α1β2γ3; test: TR-FRET allosteric activation assay; format: biochemical; settings: 50 nM Cy5-SAMS, ATP at Km
From the text: as §6, §7

BAP-tagged AMPK α1β1γ1 [12] = target: T8, BAP-tagged AMPK α1β1γ1; parameters: method as in PMID 25066137; settings: reported previously; cited from earlier work
BAP-tagged AMPK α2β2γ3 = target: T9, BAP-tagged AMPK α2β2γ3 (Homo sapiens, UniProt O43741+P54646+Q9UGI9); test: SPR direct binding (Biacore)
T9 construct: Recombinant full-length AMPK heterotrimeric complexes α1β1γ1, α1β2γ1, α1β2γ3, α2β1γ1, α2β2γ1 and α2β2γ3 were cloned into a tricistronic vector system; 6X-His (N); made in house; host or cells: E. coli BL21-CodonPlus (DE3)-RIPL, co-expressed with BirA
Procedure: as §4
(§8) We then compared the binding of nts (AMP, ADP and ATP) to α1β1γ1, α1β2γ1, α2β2γ1 and α2β2γ3 isoforms in the presence and absence of Mg^2+ and Stau, using SPR technique.

BAP-tagged AMPK α1β2γ1 = target: T10, BAP-tagged AMPK α1β2γ1 (Homo sapiens, UniProt O43741+P54619+Q13131); test: SPR direct binding (Biacore)
T10 construct: Recombinant full-length AMPK heterotrimeric complexes α1β1γ1, α1β2γ1, α1β2γ3, α2β1γ1, α2β2γ1 and α2β2γ3 were cloned into a tricistronic vector system; 6X-His (N); made in house; host or cells: E. coli BL21-CodonPlus (DE3)-RIPL, co-expressed with BirA
Procedure: as §4, §8

[13] = extent of protection (Figure 7)
[14] = activator concentration for half-maximal protection of pThr172/174, 10 nM AMPK, 40 nM PP2Aα, read-out: Protection pEC50 (converted)
[15] = presence of Mg2+ and 25 nM Stau, cell spans KD1 and KD2, read-out: KD (single measurable binding affinity)
[16] = presence of Mg2+, cell spans KD1 and KD2, read-out: KD (single measurable binding affinity)
[17] = tighter site, absence of Mg2+ and Stau, read-out: KD1
[18] = weaker site, absence of Mg2+ and Stau, read-out: KD2

T3 sequence (P54646 whole entry): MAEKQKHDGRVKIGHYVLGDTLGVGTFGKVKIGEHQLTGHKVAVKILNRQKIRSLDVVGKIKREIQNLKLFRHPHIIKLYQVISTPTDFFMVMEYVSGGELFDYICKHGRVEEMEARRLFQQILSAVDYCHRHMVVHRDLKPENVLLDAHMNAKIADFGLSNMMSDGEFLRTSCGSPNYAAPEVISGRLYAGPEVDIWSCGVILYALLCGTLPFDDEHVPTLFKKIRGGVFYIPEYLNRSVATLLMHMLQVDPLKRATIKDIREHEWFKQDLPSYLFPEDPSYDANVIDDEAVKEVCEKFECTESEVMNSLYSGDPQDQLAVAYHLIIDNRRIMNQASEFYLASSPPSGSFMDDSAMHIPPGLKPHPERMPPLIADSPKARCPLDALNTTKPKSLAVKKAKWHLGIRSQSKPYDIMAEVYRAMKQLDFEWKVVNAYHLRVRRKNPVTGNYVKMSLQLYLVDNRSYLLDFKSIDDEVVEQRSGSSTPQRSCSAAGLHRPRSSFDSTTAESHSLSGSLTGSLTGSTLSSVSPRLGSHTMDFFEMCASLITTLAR
T3 sequence (O43741 whole entry): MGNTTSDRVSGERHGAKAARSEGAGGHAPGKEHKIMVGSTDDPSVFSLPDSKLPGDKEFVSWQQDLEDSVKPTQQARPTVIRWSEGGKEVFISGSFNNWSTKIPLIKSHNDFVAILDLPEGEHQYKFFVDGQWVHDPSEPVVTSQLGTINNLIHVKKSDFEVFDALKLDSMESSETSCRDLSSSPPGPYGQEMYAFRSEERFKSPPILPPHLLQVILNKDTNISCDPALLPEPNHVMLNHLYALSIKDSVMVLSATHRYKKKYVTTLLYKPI
T3 sequence (Q9UGI9 whole entry): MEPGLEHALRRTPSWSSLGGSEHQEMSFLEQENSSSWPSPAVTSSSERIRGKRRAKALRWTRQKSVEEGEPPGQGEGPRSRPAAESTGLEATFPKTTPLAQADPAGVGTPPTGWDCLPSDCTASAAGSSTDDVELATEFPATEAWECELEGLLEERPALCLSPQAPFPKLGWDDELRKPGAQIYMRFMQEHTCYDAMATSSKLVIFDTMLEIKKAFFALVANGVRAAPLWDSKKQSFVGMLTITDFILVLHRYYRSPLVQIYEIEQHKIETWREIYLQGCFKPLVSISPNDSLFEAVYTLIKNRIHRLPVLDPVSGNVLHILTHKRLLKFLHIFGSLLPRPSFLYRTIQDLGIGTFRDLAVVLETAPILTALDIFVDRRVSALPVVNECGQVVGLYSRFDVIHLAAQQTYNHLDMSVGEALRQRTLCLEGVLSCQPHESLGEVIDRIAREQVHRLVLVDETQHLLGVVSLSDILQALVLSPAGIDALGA
T7 sequence (P54646 whole entry): as the sequence (P54646 whole entry) above
T7 sequence (O43741 whole entry): as the sequence (O43741 whole entry) above
T7 sequence (P54619 whole entry): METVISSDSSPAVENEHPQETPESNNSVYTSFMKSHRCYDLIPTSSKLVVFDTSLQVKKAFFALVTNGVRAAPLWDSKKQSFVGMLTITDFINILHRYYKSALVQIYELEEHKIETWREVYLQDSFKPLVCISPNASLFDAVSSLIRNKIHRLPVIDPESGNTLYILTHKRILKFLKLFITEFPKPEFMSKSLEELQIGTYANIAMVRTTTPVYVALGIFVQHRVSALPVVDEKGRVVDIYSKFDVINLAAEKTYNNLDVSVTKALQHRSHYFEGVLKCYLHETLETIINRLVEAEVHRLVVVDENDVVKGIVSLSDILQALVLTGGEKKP
T9 sequence (P54646 whole entry): as the sequence (P54646 whole entry) above
T9 sequence (O43741 whole entry): as the sequence (O43741 whole entry) above
T9 sequence (Q9UGI9 whole entry): as the sequence (Q9UGI9 whole entry) above
T5 sequence (P54646 whole entry): as the sequence (P54646 whole entry) above
T5 sequence (O43741 whole entry): as the sequence (O43741 whole entry) above
T5 sequence (P54619 whole entry): as the sequence (P54619 whole entry) above
T10 sequence (Q13131 whole entry): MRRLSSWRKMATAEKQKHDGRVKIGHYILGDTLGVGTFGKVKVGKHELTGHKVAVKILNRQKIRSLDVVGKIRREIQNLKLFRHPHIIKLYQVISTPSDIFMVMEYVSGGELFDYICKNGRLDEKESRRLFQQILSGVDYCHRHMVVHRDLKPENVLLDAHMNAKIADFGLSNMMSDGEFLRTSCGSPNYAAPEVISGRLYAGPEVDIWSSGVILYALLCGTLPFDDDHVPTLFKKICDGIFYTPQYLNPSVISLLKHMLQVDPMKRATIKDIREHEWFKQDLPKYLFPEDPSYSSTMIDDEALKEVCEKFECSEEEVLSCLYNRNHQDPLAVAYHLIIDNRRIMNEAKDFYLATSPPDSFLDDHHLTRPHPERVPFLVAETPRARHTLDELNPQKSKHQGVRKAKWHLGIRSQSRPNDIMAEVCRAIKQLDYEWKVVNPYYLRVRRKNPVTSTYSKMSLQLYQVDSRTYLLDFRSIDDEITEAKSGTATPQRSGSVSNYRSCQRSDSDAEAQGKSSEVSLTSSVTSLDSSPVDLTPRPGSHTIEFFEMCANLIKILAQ
T10 sequence (O43741 whole entry): as the sequence (O43741 whole entry) above
T10 sequence (P54619 whole entry): as the sequence (P54619 whole entry) above
T2 sequence (Q13131 whole entry): as the sequence (Q13131 whole entry) above
T2 sequence (Q9Y478 whole entry): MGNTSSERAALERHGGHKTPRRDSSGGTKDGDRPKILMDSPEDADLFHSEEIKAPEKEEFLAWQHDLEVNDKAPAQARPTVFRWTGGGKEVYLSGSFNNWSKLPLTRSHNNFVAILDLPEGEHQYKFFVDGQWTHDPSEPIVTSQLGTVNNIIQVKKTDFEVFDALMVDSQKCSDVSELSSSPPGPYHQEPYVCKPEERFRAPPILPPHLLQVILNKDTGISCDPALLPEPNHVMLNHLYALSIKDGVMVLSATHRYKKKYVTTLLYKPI
T2 sequence (P54619 whole entry): as the sequence (P54619 whole entry) above
T6 sequence (Q13131 whole entry): as the sequence (Q13131 whole entry) above
T6 sequence (O43741 whole entry): as the sequence (O43741 whole entry) above
T6 sequence (Q9UGI9 whole entry): as the sequence (Q9UGI9 whole entry) above
T4 sequence (Q13131 whole entry): as the sequence (Q13131 whole entry) above
T4 sequence (O43741 whole entry): as the sequence (O43741 whole entry) above
T4 sequence (P54619 whole entry): as the sequence (P54619 whole entry) above
T8 sequence (Q13131 whole entry): as the sequence (Q13131 whole entry) above
T8 sequence (Q9Y478 whole entry): as the sequence (Q9Y478 whole entry) above
T8 sequence (P54619 whole entry): as the sequence (P54619 whole entry) above
T1 sequence (P54646 whole entry): as the sequence (P54646 whole entry) above
T1 sequence (Q9Y478 whole entry): as the sequence (Q9Y478 whole entry) above
T1 sequence (P54619 whole entry): as the sequence (P54619 whole entry) above

N#Cc1c(O)c2c(-c3ccc(-c4ccccc4O)cc3)csc2[nH]c1=O [A769662]
enhanced protection of pThr172 compared with AMP (AMPK α2β1γ1): 3 fold
protection of α-pThr172/174 from PP2Aα (AMPK α2β1γ1; [13]): > 70%
enhanced protection of pThr172 compared with AMP (AMPK α1β1γ1 [1]): 10 fold
EC50 (AMPK α1β1γ1 [1]; [14]): 0.046 µM
protection of α-pThr172/174 from PP2Aα (AMPK α1β1γ1 [1]; [13]): > 70%
EC50 (AMPK α2β2γ3 [2]; [14]): 5.6 µM
protection of α-pThr172/174 from PP2Aα (AMPK α2β2γ3 [2]; [13]): > 70%
EC50 (AMPK α1β2γ1 [3]; [14]): 4.7 µM
protection of α-pThr172/174 from PP2Aα (AMPK α1β2γ1 [3]; [13]): > 70%
EC50 (AMPK α2β2γ1 [4]; [14]): 2.32 µM
protection of α-pThr172/174 from PP2Aα (AMPK α2β2γ1 [4]; [13]): > 70%
EC50 (AMPK α1β2γ3 [5]; [14]): > 40 µM
protection of α-pThr172/174 from PP2Aα (AMPK α1β2γ3 [5]; [13]): > 70%
SPR binding (BAP-tagged AMPK α2β2γ1; in the presence of 150 μM AMP, 37-1000 nM): negligible; also recorded: could not detect any binding
Kd (BAP-tagged AMPK α1β1γ1 [6]; in the presence of 150 μM AMP, n=1, read-out: KD): 0.03 µM
AC50 (AMPK α1β1γ1 [7]): 0.0722 µM
AC50 (AMPK α2β2γ3 [8]): > 40 µM
AC50 (AMPK α1β2γ1 [9]): > 40 µM
AC50 (AMPK α2β2γ1 [10]): > 40 µM
AC50 (AMPK α1β2γ3 [11]): > 40 µM
Kd (BAP-tagged AMPK α1β1γ1 [12]): 0.048 µM

Nc1ncnc2c1ncn2[C@@H]1O[C@H](COP(=O)(O)OP(=O)(O)O)[C@@H](O)[C@H]1O [ADP]
Kd (BAP-tagged AMPK α2β2γ1; [15]): 11.9 ± 0.3 µM
Kd (BAP-tagged AMPK α2β2γ1; [16]): 22.8 ± 0.5 µM
Kd (BAP-tagged AMPK α2β2γ1; [17]): 2.47 ± 0.09 µM
Kd (BAP-tagged AMPK α2β2γ1; [18]): 2600 ± 300 µM
Kd (BAP-tagged AMPK α1β1γ1 [6]; [15]): 24.4 ± 0.4 µM
Kd (BAP-tagged AMPK α1β1γ1 [6]; [16]): 33.3 ± 0.3 µM
Kd (BAP-tagged AMPK α1β1γ1 [6]; [17]): 4.75 ± 0.08 µM
Kd (BAP-tagged AMPK α1β1γ1 [6]; [18]): 1010 ± 80 µM
Kd (BAP-tagged AMPK α2β2γ3; [15]): 12.5 ± 0.1 µM
Kd (BAP-tagged AMPK α2β2γ3; [16]): 19 ± 0.2 µM
Kd (BAP-tagged AMPK α2β2γ3; [17]): 11.2 ± 0.3 µM
Kd (BAP-tagged AMPK α2β2γ3; [18]): 1500 ± 200 µM
Kd (BAP-tagged AMPK α1β2γ1; [15]): 15 ± 1 µM
Kd (BAP-tagged AMPK α1β2γ1; [16]): 28.2 ± 0.3 µM
Kd (BAP-tagged AMPK α1β2γ1; [17]): 4.2 ± 0.2 µM
Kd (BAP-tagged AMPK α1β2γ1; [18]): 2600 ± 400 µM
